pKi: −log10 of the molar value. Where “and” joins values, the source holds several entries; their conditions need not be identical. Equal values may be shown once. Where a name gives a salt, the structure may show the parent alone. Read-outs that look alike come from different tables or passages of the source.
What was measured:
[1] = target: T1, factor XIIa (Homo sapiens, UniProt P00748); experiment: inhibition of factor XIIa, dissociation constant Ki
T1 sequence (P00748 373-615 limits assumed): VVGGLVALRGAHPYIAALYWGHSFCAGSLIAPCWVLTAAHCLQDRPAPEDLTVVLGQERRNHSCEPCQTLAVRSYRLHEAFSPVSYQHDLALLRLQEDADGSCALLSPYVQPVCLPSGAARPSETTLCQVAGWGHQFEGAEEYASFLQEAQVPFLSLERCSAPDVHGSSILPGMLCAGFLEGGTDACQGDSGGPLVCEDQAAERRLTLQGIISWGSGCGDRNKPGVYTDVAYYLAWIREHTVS

[2] = target: plasmin (Homo sapiens, UniProt P00747); experiment: inhibition of plasmin, dissociation constant Ki
plasmin, sequence (P00747 581-810 limits assumed): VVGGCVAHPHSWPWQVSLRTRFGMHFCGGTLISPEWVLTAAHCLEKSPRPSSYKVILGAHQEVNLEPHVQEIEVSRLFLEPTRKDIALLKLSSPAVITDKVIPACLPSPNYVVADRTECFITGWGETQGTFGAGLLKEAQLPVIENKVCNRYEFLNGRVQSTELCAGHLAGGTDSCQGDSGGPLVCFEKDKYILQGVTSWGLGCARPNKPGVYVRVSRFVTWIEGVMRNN
plasmin, sequence (P00747 97-580 partner limits assumed): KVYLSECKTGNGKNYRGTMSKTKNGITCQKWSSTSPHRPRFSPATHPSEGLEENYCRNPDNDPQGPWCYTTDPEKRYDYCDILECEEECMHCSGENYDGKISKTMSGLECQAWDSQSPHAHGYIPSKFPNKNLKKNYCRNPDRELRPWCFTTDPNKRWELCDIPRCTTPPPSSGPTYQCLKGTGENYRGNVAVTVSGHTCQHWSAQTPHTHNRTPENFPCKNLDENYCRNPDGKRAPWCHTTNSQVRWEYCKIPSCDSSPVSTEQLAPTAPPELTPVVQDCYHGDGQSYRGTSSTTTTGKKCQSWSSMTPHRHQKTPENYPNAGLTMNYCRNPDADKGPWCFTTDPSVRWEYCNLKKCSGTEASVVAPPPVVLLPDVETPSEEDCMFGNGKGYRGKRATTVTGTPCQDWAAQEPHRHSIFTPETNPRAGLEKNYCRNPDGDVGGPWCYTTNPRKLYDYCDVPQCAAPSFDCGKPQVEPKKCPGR

[3] = target: tPA (Homo sapiens, UniProt P00750); experiment: inhibition of tPA, dissociation constant Ki
tPA, sequence (P00750 36-562): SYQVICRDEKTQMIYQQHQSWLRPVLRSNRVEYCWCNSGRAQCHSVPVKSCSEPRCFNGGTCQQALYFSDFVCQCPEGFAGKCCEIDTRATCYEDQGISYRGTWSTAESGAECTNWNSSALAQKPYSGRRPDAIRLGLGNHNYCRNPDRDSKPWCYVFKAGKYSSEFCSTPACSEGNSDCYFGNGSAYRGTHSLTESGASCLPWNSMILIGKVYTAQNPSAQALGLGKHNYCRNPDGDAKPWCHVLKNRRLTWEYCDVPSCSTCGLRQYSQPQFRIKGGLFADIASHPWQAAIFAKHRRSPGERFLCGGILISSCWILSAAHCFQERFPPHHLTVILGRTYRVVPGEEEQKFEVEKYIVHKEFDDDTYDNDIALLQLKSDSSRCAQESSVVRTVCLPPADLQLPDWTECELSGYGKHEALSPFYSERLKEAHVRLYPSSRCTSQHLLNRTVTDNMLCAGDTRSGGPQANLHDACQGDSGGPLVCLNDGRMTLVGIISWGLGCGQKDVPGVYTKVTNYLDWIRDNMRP

[4] = target: plasma kallikrein (Homo sapiens, UniProt P03952); experiment: inhibition of plasma kallikrein, dissociation constant Ki
plasma kallikrein, sequence (P03952 391-638 limits assumed, species assumed): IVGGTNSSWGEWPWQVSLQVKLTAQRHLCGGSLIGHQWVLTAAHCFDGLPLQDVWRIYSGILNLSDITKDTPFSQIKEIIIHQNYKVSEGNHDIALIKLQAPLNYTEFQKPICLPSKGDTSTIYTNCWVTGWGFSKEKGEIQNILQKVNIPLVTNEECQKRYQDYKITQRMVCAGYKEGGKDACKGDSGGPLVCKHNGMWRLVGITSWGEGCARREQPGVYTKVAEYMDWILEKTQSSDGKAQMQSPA
plasma kallikrein, sequence (P03952 20-390 partner limits assumed, species assumed): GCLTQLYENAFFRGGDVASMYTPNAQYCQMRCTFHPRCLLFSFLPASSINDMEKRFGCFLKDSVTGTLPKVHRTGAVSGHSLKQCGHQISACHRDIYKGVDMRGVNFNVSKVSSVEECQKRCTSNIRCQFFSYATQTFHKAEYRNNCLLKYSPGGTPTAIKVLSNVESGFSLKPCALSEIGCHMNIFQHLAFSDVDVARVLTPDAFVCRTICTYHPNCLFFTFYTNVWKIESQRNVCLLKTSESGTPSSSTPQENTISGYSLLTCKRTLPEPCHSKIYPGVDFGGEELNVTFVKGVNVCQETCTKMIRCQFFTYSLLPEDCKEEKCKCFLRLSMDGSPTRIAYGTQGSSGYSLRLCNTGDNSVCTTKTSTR

[5] = target: glandular kallikrein (Sus scrofa, UniProt P00752); experiment: inhibition of glandular kallikrein, dissociation constant Ki
glandular kallikrein, sequence (P00752 8-246): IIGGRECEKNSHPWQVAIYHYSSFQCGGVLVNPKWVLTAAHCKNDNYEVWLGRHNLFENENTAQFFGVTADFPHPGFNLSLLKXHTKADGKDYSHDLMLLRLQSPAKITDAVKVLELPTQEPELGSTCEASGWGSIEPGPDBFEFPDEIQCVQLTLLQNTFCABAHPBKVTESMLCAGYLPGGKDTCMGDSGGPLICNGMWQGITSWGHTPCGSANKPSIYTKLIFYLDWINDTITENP

[6] = target: T2, trypsin (Bos taurus, UniProt P00760); experiment: inhibition of trypsin, dissociation constant Ki; assay type: biochemical; design: thrombin and the related enzymes trypsin, plasmin, factor Xa, factor XIIa; conditions: Table 1; read-out: Ki, Trypsin
T2 sequence (P00760 24-246): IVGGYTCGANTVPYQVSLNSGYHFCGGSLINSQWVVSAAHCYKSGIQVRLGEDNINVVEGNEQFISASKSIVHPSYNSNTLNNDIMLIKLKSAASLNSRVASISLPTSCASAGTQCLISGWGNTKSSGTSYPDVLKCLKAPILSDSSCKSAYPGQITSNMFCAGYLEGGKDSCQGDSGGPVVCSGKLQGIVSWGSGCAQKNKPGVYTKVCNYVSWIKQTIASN
Description: (§1) The biological activity of the compounds of the present invention was determined in vitro as well as in vivo.

[7] = target: factor Xa (Bos taurus, UniProt P00743); experiment: inhibition of factor Xa, dissociation constant Ki; assay type: biochemical; conditions: Table 1
factor Xa, sequence (P00743 234-492 limits assumed): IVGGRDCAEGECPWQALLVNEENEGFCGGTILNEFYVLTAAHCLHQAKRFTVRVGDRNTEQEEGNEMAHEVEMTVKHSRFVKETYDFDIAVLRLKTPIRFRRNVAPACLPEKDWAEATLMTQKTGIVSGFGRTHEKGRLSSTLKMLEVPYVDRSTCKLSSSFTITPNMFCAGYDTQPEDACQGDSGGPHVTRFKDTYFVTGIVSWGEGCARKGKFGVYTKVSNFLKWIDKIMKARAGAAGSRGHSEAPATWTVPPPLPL
factor Xa, sequence (P00743 41-180 partner limits assumed): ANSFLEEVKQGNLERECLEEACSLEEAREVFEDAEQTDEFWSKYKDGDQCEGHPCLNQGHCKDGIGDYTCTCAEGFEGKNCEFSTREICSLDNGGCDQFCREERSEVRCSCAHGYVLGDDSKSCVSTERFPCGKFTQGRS
Description: as §1

[8] = target: T3, thrombin (Bos taurus, UniProt P00735)
[9] = target: T3, thrombin; experiment: biochemical
[10] = tested on: coagulation in human plasma; experiment: thrombin time (TT) in human plasma
[11] = tested on: coagulation in human plasma; experiment: prothrombin time (PT, Quick value) in human plasma
[12] = tested on: coagulation in human plasma; experiment: activated partial thromboplastin time (aPTT) in human plasma
[13] = plasma concentration in rats after intravenous administration; assay type: in vivo; conditions: rat
Description: (§2) A physiological NaCl solution of the substance to be tested was submitted to high pressure liquid chromatography (HPLC) in order to determine its characteristic substance-specific retention time with the chosen test conditions.
(§3) The substance to be tested was diluted in vitro in rat plasma. This solution was also submitted to HPLC to see whether the characteristic peak of the substance once again appeared at the substance-specific retention time.
(§4) Blood samples were taken at time intervals of 15 minutes, from which plasma samples were prepared by centrifugation; those samples were also submitted to HPLC to see whether the characteristic peak of the substance appeared again at the substance-specific retention time.
(§5) After administration, blood samples were taken from the test animals at time intervals from 2 to maximally 360 minutes and the blood level of the compounds to be tested was determined by HPLC.

[14] = plasma concentration in rats after oral administration; assay type: in vivo; conditions: rat
Description: as §2, §3, §4, §5

[15] = plasma concentration in rats after rectal administration; assay type: in vivo; conditions: rat
[16] = read-out: Ki, Thrombin, Table 1

CN(C)C(=O)N1CCN(C(=O)C(Cc2cccc(C(=N)N)c2)NS(=O)(=O)c2ccc3ccccc3c2)CC1 (centres unmarked) [AMD 2-Naph CO-N(Me)2]
pKi ([1]; Ki, Factor XIIa, Table 1): 3.70 and 3.89
pKi [2]: 5.21
pKi ([2]; read-out: Ki, Plasmin, Table 1): 5.21
pKi [3]: < 3.00
pKi ([4]; Ki, Plasma kallikr., Table 1): 4.33 and 4.55
pKi [5]: < 3.00
pKi [6]: 7.31
pKi [7]: 4.62 and 4.66
pKi [8, 16]: 8.06
pKi [9]: 7.89

COc1cc(C)c(S(=O)(=O)N[C@@H](Cc2cccc(C(=N)N)c2)C(=O)N2CCN(S(C)(=O)=O)CC2)c(C)c1C [Compound 9]
pKi [1]: < 3.00
pKi [2]: 5.09
pKi [3]: 3.22
pKi [4]: 3.77
Concentr. to double the Thrombin time [10]: 0.12 µmol/L
pKi [5]: < 3.00
Concentr. to double the Prothrombin time [11]: 1.1 µmol/L
pKi [6]: 6.07
pKi [7]: 4.32
Concentr. to double the aPTT [12]: 0.57 µmol/L
pKi [9]: 7.70

CC(=O)N1CCN(C(=O)C(Cc2cccc(C(=N)N)c2)NS(=O)(=O)c2ccc3ccccc3c2)CC1 (centres unmarked) [Compound 1]
pKi [1]: 3.68
pKi ([2]; read-out: Ki, Plasmin, Table 1): 5.08
pKi [3]: < 3.00
pKi [4]: 4.55
Concentr. to double the Thrombin time [10]: 0.095 µmol/L
concentration to double the TT [10]: less than 10^-7 mol/1
pKi [5]: < 3.00
Concentr. to double the Prothrombin time [11]: 2.5 µmol/L
concentration to double the PT [11]: ≤ 1 μmol/1
concentration at 5 min ([13]; plasma, iv, i.v. 1 mg/kg, 5 min): 1060 ng/mL
concentration at 0.25 h ([13]; plasma, iv, i.v. 1 mg/kg, 15 min): 394 ng/mL
concentration at 0.5 h ([13]; plasma, iv, i.v. 1 mg/kg, 30 min): 150 ng/mL
concentration at 1 h ([13]; plasma, iv, i.v. 1 mg/kg, 60 min): 89 ng/mL
concentration at 2 h ([13]; plasma, iv, i.v. 1 mg/kg, 120 min): 74 ng/mL
concentration at 3 h ([13]; plasma, iv, i.v. 1 mg/kg, 180 min): 51 ng/mL
elimination in words ([13]; i.v.): eliminated at comparable rate
pKi [7]: 4.32
concentration at 0.5 h ([14]; plasma, oral 50 mg/kg, 30 min): 87 ng/mL
concentration at 1 h ([14]; plasma, oral 50 mg/kg, 60 min): 63 ng/mL
concentration at 2 h ([14]; plasma, oral 50 mg/kg, 120 min): 57 ng/mL
concentration at 3 h ([14]; plasma, oral 50 mg/kg, 180 min): 69 ng/mL
concentration at 4 h ([14]; plasma, oral 50 mg/kg, 240 min): 91 ng/mL
concentration at 5 h ([14]; plasma, oral 50 mg/kg, 300 min): 61 ng/mL
resorption in words ([14]; oral): only slightly resorbed
Concentr. to double the aPTT [12]: 0.90 µmol/L
concentration to double the aPTT [12]: ≤ 1 μmol/1
concentration at 0.5 h ([15]; plasma, rectal 100 mg/kg, 30 min): 31400 ng/mL
concentration at 1 h ([15]; plasma, rectal 100 mg/kg, 60 min): 17900 ng/mL
concentration at 2 h ([15]; plasma, rectal 100 mg/kg, 120 min): 3780 ng/mL
concentration at 3 h ([15]; plasma, rectal 100 mg/kg, 180 min): 1080 ng/mL
concentration at 4 h ([15]; plasma, rectal 100 mg/kg, 240 min): 438 ng/mL
concentration at 5 h ([15]; plasma, rectal 100 mg/kg, 300 min): 220 ng/mL
concentration at 6 h ([15]; plasma, rectal 100 mg/kg, 360 min): 158 ng/mL
detectable in plasma after rectal administration ([15]; rectal): ≥ 6 h

CN(C)C(=O)N1CCN(C(=O)C(Cc2cccc(C(=N)N)c2)NS(=O)(=O)c2cccc3ccccc23)CC1 (centres unmarked) [AMD 1-Naph CO2 N(Me)2]
pKi ([1]; read-out: Ki, Factor XIIa, Table 1): 4.14
pKi ([2]; read-out: Ki, Plasmin, Table 1): 5.32
pKi ([3]; read-out: Ki, tPA, Table 1): 3.57
pKi ([4]; read-out: Ki, Plasma kallikr., Table 1): 4.43
pKi ([5]; read-out: Ki, Gland. kallikr., Table 1): < 3.00
pKi [6]: 6.60
pKi [7]: 5.23
pKi [8, 16]: 7.17

CCCCCC(=O)N1CCN(C(=O)C(Cc2cccc(C(=N)N)c2)NS(=O)(=O)c2ccc3ccccc3c2)CC1 (centres unmarked) [AMD 2-Naph CO(CH2)4 CH3]
pKi [1]: 3.57
pKi ([2]; read-out: Ki, Plasmin, Table 1): 5.59
pKi [3]: < 3.00
pKi [4]: 4.64
pKi [5]: < 3.00
pKi [7]: 4.72
pKi [8, 16]: 5.19

CS(=O)(=O)N1CCN(C(=O)C(Cc2cccc(C(=N)N)c2)NS(=O)(=O)c2cccc3ccccc23)CC1 (centres unmarked) [Compound 11]
pKi [1]: < 3.00
pKi ([2]; read-out: Ki, Plasmin, Table 1): 5.30
pKi [3]: < 3.00
pKi [4]: 4.10
pKi [5]: < 3.00
pKi [7]: 5.01
pKi [8, 16]: 7.59
pKi ([8]; read-out: Thrombin inhibition Ki, Table 7): 7.59

Cc1c(C)c(S(=O)(=O)N[C@@H](Cc2cccc(C(=N)N)c2)C(=O)N2CCN(S(C)(=O)=O)CC2)c(C)c2c1OC(C)(C)CC2 [Compound 10, Pmc-3-amidino-(L)-phenylalanine-4-methylsulfonyl piperazide hydrochloride]
pKi [1]: < 3.00
pKi [3]: 3.22
pKi [4]: 3.96
Concentr. to double the Thrombin time [10]: 0.10 µmol/L
pKi [5]: < 3.00
Concentr. to double the Prothrombin time [11]: 0.8 µmol/L
pKi [7]: 4.43
Concentr. to double the aPTT [12]: 0.44 µmol/L
pKi [9]: 8.28

N=C(N)c1cccc(CC(NS(=O)(=O)c2ccc3ccccc3c2)C(=O)N2CCN(S(=O)(=O)c3ccccc3)CC2)c1 (centres unmarked) [AMD 2-Naph SO2 -Ph]
pKi [1]: 3.92
pKi ([2]; read-out: Ki, Plasmin, Table 1): 4.72
pKi [3]: < 3.00
pKi [4]: 4.44
pKi [5]: < 3.00
pKi [7]: 4.62
pKi [8, 16]: 7.39

N=C(N)c1cccc(CC(NS(=O)(=O)c2ccc3ccccc3c2)C(=O)N2CCN(C=O)CC2)c1 (centres unmarked) [AMD 2-Naph For]
pKi [1]: 4.08
pKi ([2]; read-out: Ki, Plasmin, Table 1): 5.20
pKi [3]: < 3.00
pKi [4]: 4.80
pKi [5]: 3.36
pKi [7]: 4.72
pKi ([8]; read-out: Ki, Thrombin): 7.43

CC(=O)N1CCN(C(=O)C(Cc2cccc(C(=N)N)c2)NS(=O)(=O)c2ccc3c(c2)C(=O)c2ccccc2C3=O)CC1 (centres unmarked) [Compound 4]
pKi [1]: 4.28
pKi [2]: 5.07
pKi [3]: < 3.00
pKi [4]: 5.15
Concentr. to double the Thrombin time [10]: 0.085 µmol/L
concentration to double the TT [10]: less than 10^-7 mol/1
pKi [5]: < 3.00
Concentr. to double the Prothrombin time [11]: 2.0 µmol/L
concentration to double the PT [11]: ≤ 1 μmol/1
pKi [6]: 7.59
pKi [7]: 5.39
Concentr. to double the aPTT [12]: 1.2 µmol/L
concentration to double the aPTT [12]: ≤ 1 μmol/1
pKi [9]: 7.85

CCS(=O)(=O)N1CCN(C(=O)C(Cc2cccc(C(=N)N)c2)NS(=O)(=O)c2ccc3ccccc3c2)CC1 (centres unmarked) [AMD 2-Naph SO2 Et]
pKi [1]: 3.67
pKi ([2]; read-out: Ki, Plasmin, Table 1): 5.46
pKi [3]: 3.09
pKi [4]: 4.24
pKi [5]: < 3.00
pKi [7]: 4.62
pKi [8, 16]: 7.36
